Columns and labels:
AMPA receptors = assay: Patch-clamp potentiation of kainate-induced trans-membrane currents in freshly isolated cerebellar Purkinje's neurons; type: cell-based, rat; settings: for Potentiation of cainate-induced currents (%) / Potentiation of cainate-induced currents (%): blockade: rat cerebellar Purkinje's neurons; for Washing returned the amplitude of responses to the control value: washing time after application of the compound; for Potentiation of cainate-induced currents (%): blockade: 10 µM, values are printed as blockade, without minus sign
Procedure: The inventors used determining the potentiating effect of novel compounds on kainate-induced trans-membrane currents in cerebellar Purkinje's neurons of rats for a directed search for compounds capable of potentiating responses of AMPA receptors (and thereby, to cause improvement of memory and cognitive functions).
Experiments on assessing the effect of substances on AMPA receptors were carried out using the patch-clamp method on freshly isolated Purkinje's neurons isolated from cerebellum of rats (aged 12 to 15 days). A modified method was used for isolation. 400 to 600 µm thick cerebellar slices were placed into a thermostatic 10 ml chamber. A solution for isolation had the following composition (in mM): NaCl 150.0, KCl 5.0; CaCl2 2.0, MgSO4×7H2O 2.0, HEPES 10.0, glucose 15.0, pH 7.42. The slices were incubated in this solution for 60 minutes, and thereafter, the solution was replaced by a similar solution comprising pronase (2 mg/ml) and collagenase (1 mg/ml) and incubated for 70 minutes. After washing with the original solution for 20 minutes, the slices were placed into a Petri plate and separated by a mechanic method using a Pasteur pipette. The solutions were continuously blown-through with 100% O2 at temperature 34°C. Purkinje's neurons were placed into a 0.6 ml working chamber. A process solution had the following composition (in mM): NaCl 150.0, KCl 5.0; CaCl2 2.6, MgSO4×7H2O 2.0, HEPES 10.0, glucose 15.0, pH 7.36.
Trans-membrane currents were induced by activation of AMPA receptors by applying agonist solutions of these receptors, i.e. cainic acid (CA) using a fast superfusion method. Cainic acid is an agonist of AMPA receptors and it is used for studying properties of AMPA receptors, since AMPA as such causes a too strong desensitization of the receptors, and it is not used in such experiments. Currents were recorded using borosilicate micro electrodes (resistance 1.5 to […]) filled with a following composition (in mM): KCl 100.0; EGTA 11.0, CaCl2 1.0, MgCl2 1.0, HEPES 10.0, ATP 5.0, pH 7.2.
The instrument EPC-9 (HEKA, Germany) was used for recoding. Currents were recorded on the PC Pentium-4 hard disc using the Pulse software, also purchased from the HEKA company. Results were processed using the Pulsefit software (HEKA).
Applying KK induced trans-membrane inward currents in Purkinje's neurons. Addition of the compounds of formula I to perfusion solution induced increase in amplitude of the currents. This increase was dependent on a compound, on concentration thereof, on time elapsed following commencement of a compound application.

[1] = Acute toxicity (LD50, Litchfield and Wilcoxon), intraperitoneal, 14 days follow-up; settings: mouse, in vivo, ip; male white outbred mice, intraperitoneally, follow-up 14 days
Procedure: Acute toxicity of the substances was determined on males of white outbred mice weighing 22 to 26 grams. The substances were administered intraperitoneally as a solution or a suspension in 1% starch solution. Follow-up period was 14 days.

[2] = 0.1 µM, negative values = blockade of the currents
[3] = 1 µM, negative values = blockade of the currents

SMILES | Potentiation of cainate-induced currents (%) (AMPA receptors; 0.0001 µM) | Potentiation of cainate-induced currents (%) (AMPA receptors; 0.001 µM) | Potentiation of cainate-induced currents (%) (AMPA receptors; 0.001 µM, listed as 1 (XXXI)) | Potentiation of cainate-induced currents (%) (AMPA receptors; 0.01 µM) | Potentiation of cainate-induced currents (%) (AMPA receptors; 0.01 µM, listed as 1 (XXXI)) [µM - potentiation by 80%] | Potentiation of cainate-induced currents (%) (AMPA receptors; [2]) | Potentiation of cainate-induced currents (%) (AMPA receptors; 0.1 µM, negative values = blockade of the currents, listed as 1 (XXXI)) | Potentiation of cainate-induced currents (%) (AMPA receptors; [3]) | Potentiation of cainate-induced currents (%) (AMPA receptors; 1 µM, negative values = blockade of the currents, listed as 1 (XXXI)) | Washing returned the amplitude of responses to the control value (AMPA receptors) [min] | LD50 at 14 days [1] [mg/kg] | Potentiation of cainate-induced currents (%) (AMPA receptors; 0.00001 µM) | Potentiation of cainate-induced currents (%) (AMPA receptors; 0.00001 µM, listed as 2 (XXX2)) | Potentiation of cainate-induced currents (%) (AMPA receptors; 0.0001 µM, listed as 2 (XXX2)) | Potentiation of cainate-induced currents (%) (AMPA receptors; 0.001 µM, listed as 2 (XXX2)) | Potentiation of cainate-induced currents (%) (AMPA receptors; 0.01 µM, listed as 2 (XXX2)) | Potentiation of cainate-induced currents (%) (AMPA receptors; 0.1 µM, negative values = blockade of the currents, listed as 2 (XXX2)) | Potentiation of cainate-induced currents (%): blockade (AMPA receptors) | Potentiation of cainate-induced currents (%) (AMPA receptors; 30 µM)
CC12CN(C(=O)c3ccc4c(c3)OCCO4)CC(C)(CN(C(=O)c3ccc4c(c3)OCCO4)C1)C2=O [Compound 1, 3,7-bis(2,3-dihydro-1,4-benzodioxin-6-ylcarbonyl)-1,5-dimethyl-3,7-diazabicyclo[3.3.1]nonan-9-one] | 0.0001 µM - no potentiation | 40 to 50% | 0.001 µM - potentiation by 40 to 50%, | 80% | 0.01 | 0% | 0.1 µM - 0%, | -20 to -40% | 1 µM - blockade by -20 to -40% | 3 to 5 | 350 |  |  |  |  |  |  |  | 
CC12CN(C(=O)c3ccc4c(c3)OCO4)CC(C)(CN(C(=O)c3ccc4c(c3)OCO4)C1)C2=O [Compound 2, 3,7-bis(1,3-benzodioxol-5-ylcarbonyl)-1,5-dimethyl-3,7-diazabicyclo[3.3.1]nonan-9-one] | 50-90% | 60-140% |  | 0-20% |  |  |  |  |  | 4 to 6 | 140 | 10 | 0.00001 µM -potentiation by 20 to 40% | 0.0001 µM - potentiation by 50 to 90%, | 0.001 µM - potentiation by 60 to 140% | 0.01 µM - potentiation by 0 to 20%, | 0.1 µM - blockade by -20 to -40% |  | 
Cc1nc2ccc(C(=O)N3CC4(C)CN(C(=O)c5ccc6nc(C)c(C)nc6c5)CC(C)(C3)C4=O)cc2nc1C [Compound 3, 3,7-bis[(2,3-dimethylquinoxalin-6-yl)carbonyl]-1,5-dimethyl-3,7-diazabicyclo[3.3.1]nonan-9-one] | 0.0001 µM - no potentiation | 0.001 µM - potentiation by 10 to 15% |  | 0.01 µM - potentiation by 20 to 30%, |  | 0.1 µM - blockade by -20 to -50% |  | 1 µM - no potentiation |  |  | 90 |  |  |  |  |  |  | 10 µM - blockade by 20 to 50% | 
COc1ccc(C(=O)N2CC3(C)CN(C(=O)c4ccc(OC)c(Cn5cccn5)c4)CC(C)(C2)C3=O)cc1Cn1cccn1 [Compound 4] |  | 0.001 µM - no effect |  | 0.01 µM - potentiation by 10 to 30%, |  | 0.1 µM - blockade by -20 to -40% |  | 1 µM - 0% |  |  | 900 |  |  |  |  |  |  | 10 µpM - blockade by 15 to 35% | 
CC12CC3CC(C)(C1)CC(N)(C3)C2 [Memantine, reference compound] |  |  |  |  |  |  |  |  |  |  | 1000 |  |  |  |  |  |  |  | potentiation by 0 to 15% at 30 µM

Source: patent EP2088149A1 (priority 2006, dated 2008)
